Measured values taken from patent publication US20170027896A1, “METHODS AND COMPOSITIONS FOR THE TREATMENT OF VASCULAR MALFORMATION” (IFOM - FONDAZIONE ISTITUTO FIRC DI ONCOLOGIA MOLECOLARE, priority 2014, published 2017).
Entries after “also recorded” stand apart in the source; their conditions may differ.

B1: Dkk1: murine recombinant Dkk1, competitor of Wnt co-receptor Lrp5/6 (protein)
chain: TLNSVLINSNAIKNLPPPLGGAGGQPGSAVSVAPGVLYEGGNKYQTLDNYQPYPCAEDEECGSDEYCSSPSRGAAGVGGVQICLACRKRRKRCMRHAMCCPGNYCKNGICMPSDHSHFPRGEIEESIIENLGNDHNAAAGDGYPRRTTLTSKIYHTKGQEGSVCLRSSDCAAGLCCARHFWSKICKPVLKEGQVCTKHKRKGSHGLEIFQRCYCGEGLACRIQKDHHQASNSSRLHTCQRH
B2: VE-cadherin (other, mouse, UniProt P55284 46-784, looked up)
chain: DWIWNQMHIDEEKNESLPHYVGKIKSNVNRQNAKYVLQGEFAGKIFGVDANTGNVLAYERLDREKVSEYFLTALIVDKNTNKNLEQPSSFTVKVHDINDNWPVFSHQVFNASVPEMSAIGTSVIRVTAVDADDPTVAGHATVLYQIVKGNEYFSIDNSGLIFTKIKNLDREKQAEYKIVVETQDALGLRGESGTATVMIRLEDINDNFPVFTQSTYTFSVPEDIRVGKPLGFLTVVDPDEPQNRMTKYSIMQGEYRDTFTIETDPKRNEGIIKPTKSLDYEVIQQYTFYIEATDPTIRYEYLSSTSGKNKAMVTINVLDVDEPPVFQRHFYHFKLPENQKKPLIGTVVAKDPDKAQRSIGYSIRKTSDRGQFFRITKQGNIYNEKELDRETYAWYNLTVEANELDSRGNPVGKESIVQVYIEVLDENDNPPEFAQPYEPKVCENAAQGKLVVQISATDKDVVPVNPKFKFALKNEDSNFTLINNHDNTANITVKYGQFNREHAKFHYLPVLISDNGVPSLTGTSTLTVGVCKCNEQGEFTFCEEMAAQAGVSIQALVAIFLCILTITVITLLIILRRRIRKQAHAHSKSALEIHEQLVTYDEEGGGEMDTTSYDVSVLNSVRGGSTKPLRSTMDARPAVYTQVQKPPRLAPGLHGGPREMATMIDVKKEEADNDGGGPPYDTLHIYGYEGAESIAESLSSLSTNSSDSDIDYDFLNDWGPRFKMLAELYGSDPQEELII
notes: Endogenous protein immunoprecipitated from endothelial cell extracts with VE-cadherin antibodies (IP: VE); also called Cdh5
B3: b-catenin (other, mouse, UniProt Q02248 2-781, looked up)
chain: ATQADLMELDMAMEPDRKAAVSHWQQQSYLDSGIHSGATTTAPSLSGKGNPEEEDVDTSQVLYEWEQGFSQSFTQEQVADIDGQYAMTRAQRVRAAMFPETLDEGMQIPSTQFDAAHPTNVQRLAEPSQMLKHAVVNLINYQDDAELATRAIPELTKLLNDEDQVVVNKAAVMVHQLSKKEASRHAIMRSPQMVSAIVRTMQNTNDVETARCTAGTLHNLSHHREGLLAIFKSGGIPALVKMLGSPVDSVLFYAITTLHNLLLHQEGAKMAVRLAGGLQKMVALLNKTNVKFLAITTDCLQILAYGNQESKLIILASGGPQALVNIMRTYTYEKLLWTTSRVLKVLSVCSSNKPAIVEAGGMQALGLHLTDPSQRLVQNCLWTLRNLSDAATKQEGMEGLLGTLVQLLGSDDINVVTCAAGILSNLTCNNYKNKMMVCQVGGIEALVRTVLRAGDREDITEPAICALRHLTSRHQEAEMAQNAVRLHYGLPVVVKLLHPPSHWPLIKATVGLIRNLALCPANHAPLREQGAIPRLVQLLVRAHQDTQRRTSMGGTQQQFVEGVRMEEIVEGCTGALHILARDVHNRIVIRGLNTIPLFVQLLYSPIENIQRVAAGVLCELAQDKEAAEAIEAEGATAPLTELLHSRNEGVATYAAAVLFRMSEDKPQDYKKRLSVELTSSLFRTEPMAWNETADLGLDIGAQGEALGYRQDDPSYRSFHSGGYGQDALGMDPMMEHEMGGHHPGADYPVDGLPDLGHAQDLMDGLPPGDSNQLAWFDTDL
notes: Endogenous protein in total cell extracts, co-immunoprecipitated with VE-cadherin antibodies; also called beta-catenin; β-catenin

Experiments:
[1] = tested on: CCM3-knockout (KO) endothelial cells; test: Axin2 and S100a4 transcription in un-stimulated CCM3-knockout endothelial cells treated with Wnt pathway inhibitors; assay type: cell-based, mouse; settings: 48 h, IWP2, IWP12 0.5, 2, 5 DM, Dkk1 0.5 uM
Experimental: (§1) Drugs were added to confluent cells for 48 h before the indicated assays. Final concentrations for IWP2 and IWP12, both from Sigma-Aldrich, were: 0.5, 2, 5 DM. Drugs were dissolved in DMSO, control treatment (Vehicle) was 0.1% DMSO final concentration, as for drug treatment. Murine recombinant Dkk1 (R&D) was 0.5 DM on cells.
(§2) RNA extraction was performed with RNeasy kits (74106; […]). The RNA (1 μg) was reverse transcribed with random hexamers (High Capacity cDNA Archive kits; Applied Biosystems). The cDNA was amplified with TaqMan gene expression assays (Applied Biosystems) using a 7900 HT thermocycler (ABI/Prism). For each sample, the expression levels were determined with the comparative threshold cycle (Ct) method, and normalized to the housekeeping genes encoding 18S and glyceraldehyde-3-phosphate dehydrogenase (GAPDH). For amplification, the following probes (Applied Biosystems) that have been validated to recognize the mouse transcripts in rtPCR were used: Axin2, Nkd1, Lef1, ccnd1, cMyc-Klf4, Ly6a, S100a4, Id1, Cdh2, Acta2, CD44. The probes to identify the CCM3 mRNA transcript were custom designed, as: forward, […] (SEQ ID No. 12); reverse, GCTCTGGCCGCTCAATCA (SEQ ID No. 13); reporter sequence, […] (SEQ ID No. 14).

[2] = tested on: wild-type endothelial cells; test: Wnt3a stimulation of stem-cell/EndMT marker expression in wild-type endothelial cells; assay type: cell-based, mouse; settings: acute stimulation (48 h); 5 ng/ml
Experimental: as §1, §2

[3] = tested on: CCM3-knockout endothelial cell line; test: rtPCR of b-catenin target gene and progenitor/EndMT markers in CCM3-knockout endothelial cell line; assay type: cell-based, mouse; settings: 48 h; 135 mM sulindac sulfide, 125 mM sulindac sulfone, 200 mM silibinin, 250 mM salinomycin
Experimental: In some experiments, endothelial cell lines from the lungs of CCM3-flox/flox mice (8-10 weeks old) were immortalized in culture through retroviral expression of polyoma middle T gene^60. […] These cells were then maintained in culture for up to 25 passages without detectable changes in the effects of this CCM3 ablation.
Drugs were added to confluent cells for 48 h before the indicated assays. The final concentrations used were: […] (all from Sigma-Aldrich). As all of these were dissolved in DMSO, control treatment (vehicle) was 0.1% DMSO final concentration, as for drug treatment.
as §2

[4] = tested on: Wnt3a-induced stimulation of Axin2; test: Wnt3a-induced stimulation of Axin2 in wild-type and CCM3-knockout endothelial cell lines; assay type: cell-based, mouse; settings: Dkk1 0.5 uM
Experimental: as §1, §2

[5] = target: B3; test: co-immunoprecipitation with VE-cadherin antibodies and Western blot, murine endothelial cell line extracts
[6] = target: B2; test: co-immunoprecipitation with VE-cadherin antibodies and Western blot, bands quantified with ImageJ, mean of three experiments; vehicle-KO versus vehicle-WT
Description: Active b-catenin and VE-cadherin were lost from cell-cell contacts (adherens junctions) in these CCM3-knockout endothelial cells (top main panels, XY axis; small lower panels, Z projection along X axis). The active b-catenin (KO vehicle, arrowheads) is concentrated into the nucleus (see corresponding arrowheads in DAPI stainings) (right panels). Treatment with sulindac sulfide restored the distribution of active b-catenin to the adherens junctions (right panels, sulindac sulfide, arrowheads, and small lower right panels, sulindac sulfide, small arrowheads, for distribution along Z axis) and co-localization of active b-catenin and VE-cadherin is observed (arrowheads). […] Podocalyxin is re-localized from the apical surface (left panels, WT, arrows) to be ectopically distributed on the basal side with CCM3 knockout (right panel, vehicle, arrowheads), as it has been reported for CCM1 knockout⁴⁶. Nuclei are outlined by white lines (DAPI). Sulindac sulfide re-establishes the correct apical distribution of podocalyxin (right panel, sulindac sulfide, arrows). Scale bar, […]. c. Representative Western blotting (top) and quantification (bottom) of the effects of sulindac sulfide on the co-immunoprecipitation complex of b-catenin and VE-cadherin. […] The quantification of the bands from the Western blotting was assessed as the means of three independent experiments, using ImageJ. d.

Molecule: Cc1ccc2nc(NC(=O)CSc3nc4c(c(=O)n3C)SC(C)C4)sc2c1 (centres unmarked) [IWP12]
- b-catenin-driven activation of Axin2 and S100a4 transcription [1]: not inhibited; also recorded: did not inhibit

Molecule: Cc1ccc2nc(NC(=O)CSc3nc4c(c(=O)n3-c3ccccc3)SCC4)sc2c1 [IWP2]
- b-catenin-driven activation of Axin2 and S100a4 transcription [1]: not inhibited; also recorded: did not inhibit

Molecule: Wnt3a
- induction of expression of stem-cell/EndMT markers [2]: cannot induce; also recorded: did not induce

Molecule: CC[C@@H](C(=O)[C@@H](C)[C@@H](O)[C@H](C)[C@@H]1O[C@@H]([C@@H](CC)C(=O)O)CC[C@@H]1C)[C@H]1O[C@]2(C=C[C@@H](O)[C@]3(CC[C@@](C)([C@H]4CC[C@](O)(CC)[C@H](C)O4)O3)O2)[C@H](C)C[C@@H]1C [salinomycin]
- inhibition of transcription of Axin2, Klf4 and S100a4 (rtPCR) [3]: significantly reduced only Axin2 and S100a4

Molecule: B1
- b-catenin-driven activation of Axin2 and S100a4 transcription [1]: not inhibited; also recorded: did not inhibit
- Wnt3a-induced stimulation of Axin2 [4]: effectively inhibited

Molecule: B2
- binding result [5]: binds

Molecule: B3
- reduction of the b-catenin/VE-cadherin co-immunoprecipitation ratio in CCM3-knockout versus wild-type cells [6]: 35%
